# Legend:
# Normal rat liver = experiment: reactive oxygen species formation in rat liver infused with DNP; conditions: upon cessation of uncoupling (FIG. 9)
# Borrelia burgdorferi = experiment: DNP hyperthermia, Lyme disease (Example 3); format: in vivo, human
# Description: Pretreatment protocol: the evening prior treatment the patient was instructed not to eat and dress in cotton undergarments. Approximately 4 hours prior to treatment 2 mg alprazolam was administered by mouth. The patient dressed themself into a dry cold water immersion suit (Stearns, previously described) with headgear. Monitoring sensors, including EKG display, IV fluids and Foley catheter were attached and the suit was zipped closed. The patient opted for oxygen supplementation. The modified face mask was connected to the TEEM 100 metabolic Analysis System for V02 measurements. Data was recorded as previously described.
# The patient was infused with 1 mg/kg DNP over a 2 minute period. V02 increased and stabilized at 250 cc/min, 5.3 cc/kg/min. A second dose of 2.0 mg/kg was infused over a 2 minute period and the V02 peaked at 400 cc/min, 8.8 cc 02/kg/min. An additional dose of 1.0 mg/kg DNP was given 30 minutes after the second dose. The V02 increased and reached a stable plateau at 600 cc/min, […]. […] V02 increased back to 680-710 cc/min. […] The patient periodically requested the V02 monitoring mask be removed during the hyperthermia treatment period. They were accommodated with removal of the mask on two occasions for periods not exceeding 10 minutes. […] The treatment was terminated 4 hours and 10 minutes after the initial dose of DNP. Twenty five minutes after the patient was removed from the neoprene survival suit, the rectal core temperature dropped to 38.5° C. Normothermia was achieved approximately 60 minutes after cessation of therapy and removal from the survival suit. Approximately 6.5 to 7 hours after treatment the patient experienced chills, an increase in oral temperature to 38.7 degrees centigrade and malaise. IV fluids and the dopamine drip at 2 mcg/kg/min were restarted and the patient was closely observed. Their symptoms subsided over 3 hours and by the next day they felt active and hungry. It was surmised they may have experienced a delayed Jarisch-Herxheimer reaction. The patients monitored treatment flow chart is FIG. 18.
# [1] = test system: Echinococcus multilocularis; experiment: DNP with glucagon, hydatid disease of the liver (Example 1); format: in vivo, human
# Description: Pretreatment protocol: the patient was given 10 mg diazepam by mouth and dressed into a modified wet suit. The wet suit was cut lengthwise at the arms and legs. Velcro strappings were attached at the cuttings for closure, rapid removal or exposure of the limb(s). After placement of monitoring sensors, they were started on IV fluids of 5% dextrose, 0.5 normal saline with 7 meq K^+, infused at an initial rate of 12 cc/kg/hr. Evaporative heat loss from the head was minimized by a plastic shower cap and towels. A 401AC temperature probe (YSI Incorporated, Yellow Springs, Ohio) was inserted 11 cm. into the rectum. […] A TEEM 100 Metabolic Analysis System (AeroSport Inc., Ann Arbor, Mich.), with a modified face mask and oxygen delivery system (38-40% 02 saturation) for patient comfort and increased accuracy, was attached to the patient. Oxygen consumption (V02), carbon dioxide production (VC02), expired air volume (VE), heart rate (HR), and Kcal of heat produced were measured in 20 second intervals and extrapolated to minute or hourly rates.
# Treatment procedure: After baseline recordings of 10 minutes, the required amount of DNP to raise the initial V02 to achieve a temperature in the patient of 40° C. was calculated as described under “DNP dosage required to increase V02”. The patient was given an initial dose of 1 mg/kg of DNP, infused intravenously over a 3 minute period. […]
# [2] = test system: inner mitochondrial membrane; conditions: lowered from −180; cited from earlier work
# HIV = experiment: DNP hyperthermia, HIV disease (Example 2); format: in vivo, human
# Description: Pretreatment protocol: all medications were stopped 2 weeks prior to treatment. The patient refused taking diazepam, placement of a Foley catheter and oxygen face mask. They dressed themself into a dry cold water immersion suit (Stearns, ISS-590I, Universal Adult) designed to prevent heat loss and modified for easy placement of physiologic monitors. Equipment for measurement of heart rate, temperature, carbon dioxide production and Kcal of heat produced were conducted as outlined in Example 1. An oral breathing tube was used to measure V02 from room air. Urine output was measured when the patient voluntarily urinated through a “Texas” catheter (superficial condom tightly fitted around the head of the penis with tubing connected to urine collection bag). The patient was informed that hyperthermia would be administered as tolerated by their stamina and monitored clinical parameters, not to exceed 5 hours, on a daily or every other day basis, for a total of 5 sessions.
# Treatment procedure: Baseline reading for 5 minutes established an average V02 of 300 cc/min. An initial dose of 2 mg/kg of DNP was administered over a 2 minute period. V02 increased and stabilized at 15 minutes at 340-380 cc/min. An additional 2 mg/kg DNP infusion was given, the V02 increased and stabilized at 610-630 cc/min. […] Norepinephrine bitartrate (Levophed) was given IV drip at a dose of 1 microgram/min. and adjusted to maintain blood pressure at 130/80. Approximately 1 minute after initiating the vasopressor, heart rate increased from 90 to 100 and V02 to 0.85 liters/min. […] V02 was maintained at 1.0 liters/min. by lowering or increasing the dose of norepinephrine. An additional infusion of 1 mg/kg DNP was given at hour 4 to correct a dropping V02. On occasions when the core temperature increased above 41.6° C., a lower extremity was exposed for evaporative heat loss. […] The protocol was repeated consecutively for 5 days without the additional use of vasopressors.
# hepatic ischemic injury = hepatic ischemic injury by Pringle's maneuver after DNP pretreatment; format: in vivo; conditions: Pringle's maneuver (FIG. 22)
# Text: This method of DNP induced preconditioning could be used to decrease intimal thickening and restenosis after angioplasty, improve ischemia/reperfusion injury in organ and tissue transplantation, and improve surgical outcome of procedures that require temporary or prolonged occlusion of arterial blood flow.
# [3] = test system: tumors and normal fibroblasts; conditions: many tumors and normal fibroblasts treated with DNP; cited from earlier work
compound,measurement,setting,value
"O=[N+]([O-])c1ccc(O)c([N+](=O)[O-])c1 [DNP, 2,4-dinitrophenol]",formation of reactive oxygen species,Normal rat liver,threefold
same,"repeat spinal fluid analysis, Borrelia DNA by PCR",Borrelia burgdorferi; after treatment,no detectable Borrelia DNA by PCR
same,spinal fluid culture on Barbour-Stoenner-Kelly II medium,Borrelia burgdorferi; three months later,negative
same,EKG,Borrelia burgdorferi; two months follow-up,resolution of their first degree A-V block
same,symptoms,Borrelia burgdorferi; two months follow-up,"arthralgias, myalgias, malaise, fatigue and memory deficits have disappeared"
same,serial imaging of hepatic and bone cysts,[1]; 2 and 4 weeks post treatment,hepatic and bone cyst shrinkage with increased density
same,magnetic resonance imaging of cysts,[1]; 4 months,complete cyst disappearance in the liver and bone
same,inner mitochondrial membrane potential,[2],−145 mV
same,lymphadenopathy,HIV; 2 weeks post-treatment,resolved
same,HIV RNA,"HIV; 4, 6 and 12 weeks post-treatment",non-detectable
same,CD4+ T cell lymphocyte counts,"HIV; by week 4, stable at week 6 and 12, pretreatment 250/mm^3",380-420 cells/mm^3
same,viral load,"HIV; immediately after treatment day 5, pretreatment 400,000 copies/ml","50,000 HIV-RNA copies/ml"
same,effect of DNP pretreatment before hepatic ischemic injury,hepatic ischemic injury,protective effect
same,increase in heat production,[3],83%
same,increase in oxygen consumption,[3],36%

# From patent US7635722B1, “Chemical induced intracellular hyperthermia” (priority 1998, dated 2009)
